Here are results for 31 molecules from US10428062B2, “Geminal substituted aminobenzisoxazole compounds as agonists of α7-nicotinic acetylcholine receptors” (Forum Pharmaceuticals, Inc., priority 2015, dated 2019).

The structures appear in SMILES notation. Structures can show the parent of a compound that is named as a salt. Where only a bound is given, the exact number is not on record here.

The target of the first assay is human α7 nAChR (Homo sapiens, UniProt P36544).
human α7 nAChR, sequence (P36544 23-502): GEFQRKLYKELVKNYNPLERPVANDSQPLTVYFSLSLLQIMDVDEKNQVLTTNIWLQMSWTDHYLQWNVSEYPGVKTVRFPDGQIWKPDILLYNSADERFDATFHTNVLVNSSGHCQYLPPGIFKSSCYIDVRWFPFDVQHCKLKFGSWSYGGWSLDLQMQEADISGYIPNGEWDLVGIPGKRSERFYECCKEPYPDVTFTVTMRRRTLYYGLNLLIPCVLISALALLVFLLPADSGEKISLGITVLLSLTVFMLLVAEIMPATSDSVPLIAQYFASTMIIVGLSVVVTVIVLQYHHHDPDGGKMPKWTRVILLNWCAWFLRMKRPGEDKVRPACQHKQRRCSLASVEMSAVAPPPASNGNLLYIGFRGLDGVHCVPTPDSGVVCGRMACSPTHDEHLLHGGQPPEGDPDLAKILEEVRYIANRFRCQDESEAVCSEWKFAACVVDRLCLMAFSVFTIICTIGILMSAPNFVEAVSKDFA
Test: not given
In kind it is binding. The settings on record: above described assay provided by Cerep.
In turn, `Cc1ccc(-c2ccc(OC3CN4CCC3CC4)cn2)cc1` (centres unmarked) [AQW051] showed a Ki of 0.255 µM.

The target in another assay is T1, human 5-HT3 serotonin receptors (Homo sapiens, UniProt P46098).
T1 sequence (P46098 24-478): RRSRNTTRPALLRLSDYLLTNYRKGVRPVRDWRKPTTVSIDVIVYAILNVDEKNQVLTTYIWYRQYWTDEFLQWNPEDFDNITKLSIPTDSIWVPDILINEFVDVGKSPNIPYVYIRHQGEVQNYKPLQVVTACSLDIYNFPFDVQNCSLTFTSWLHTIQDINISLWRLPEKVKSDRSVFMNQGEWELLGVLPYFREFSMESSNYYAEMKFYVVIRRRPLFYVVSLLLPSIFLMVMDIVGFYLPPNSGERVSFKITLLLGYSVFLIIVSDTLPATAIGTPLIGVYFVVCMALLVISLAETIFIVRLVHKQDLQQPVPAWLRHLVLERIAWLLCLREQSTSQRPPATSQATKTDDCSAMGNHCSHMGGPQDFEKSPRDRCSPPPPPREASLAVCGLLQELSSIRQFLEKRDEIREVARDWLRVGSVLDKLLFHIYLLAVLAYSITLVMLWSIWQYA
As to the kind of experiment: [3H]BRL 43694 competition binding assay (Cerep).
Conditions: not given
In the case of `Clc1ccc2c(NC3C4CCN(CC4)C34CC4)noc2c1` (racemic) [rac-16, 6-chloro-N-(1′-azaspiro[cyclopropane-1,2′-bicyclo[2.2.2]octan]-3′-yl)benzo[d]isoxazol-3-amine hydrochloride], the affinity corresponds to a Ki of 1.8 µM.
The same measure, in the same setting: next, `Cc1ccc2c(N[C@@H]3C4CCN(CC4)C34CC4)noc2c1Cl` [Compound (R)-28, (R)-7-chloro-6-methyl-N-(1′-azaspiro[cyclopropane-1,2′-bicyclo[2.2.2]octan]-3′-yl)benzo[d]isoxazol-3-amine hydrochloride]: 0.066 µM.
On the same count and under the same terms, in the case of `Clc1ccc2c(N[C@@H]3C4CCN(CC4)C34CC4)noc2c1Cl` [(R)-19, (R)-6,7-dichloro-N-(1′-azaspiro[cyclopropane-1,2′-bicyclo[2.2.2]octan]-3′-yl)benzo[d]isoxazol-3-amine hydrochloride] it was 0.1 µM.

Staying with this assay, now noted: CHO cell membranes expressing human 5-HT3 receptors, [3H]BRL 43694, 120 min at room temperature; read-out: h-5HT3 Ki.
With `COc1ccc2c(N[C@@H]3C4CCN(CC4)C3(C)C)noc2c1` [Compound (R)-3, (R)—N-(2,2-dimethylquinuclidin-3-yl)-6-methoxybenzo[d]isoxazol-3-amine hydrochloride], the Ki is more than 10 µM.
For the molecule `CC1(C)[C@H](Nc2noc3cc(Cl)c(F)cc23)C2CCN1CC2` [Compound (R)-11, (R)-6-chloro-N-(2,2-dimethylquinuclidin-3-yl)-5-fluorobenzo[d]isoxazol-3-amine hydrochloride], the Ki was more than 10 µM.
As for `Clc1ccc2c(N[C@@H]3C4CCN(CC4)C34CC4)noc2c1` [Compound (R)-16, (R)-6-chloro-N-(1′-azaspiro[cyclopropane-1,2′-bicyclo[2.2.2]octan]-3′-yl)benzo[d]isoxazol-3-amine], the inhibition constant (Ki) amounted to 1.63 µM.
On the same count and under the same terms, next, `CC1(C)[C@H](Nc2noc3c(Cl)c(Cl)ccc23)C2CCN1CC2` [Compound (R)-4, (R)-6,7-dichloro-N-(2,2-dimethylquinuclidin-3-yl)benzo[d]isoxazol-3-amine hydrochloride]: 0.13 µM; `CC1(C)[C@H](Nc2noc3c(C(F)(F)F)c(Cl)ccc23)C2CCN1CC2` [Compound (R)-14, (R)-6-chloro-N-(2,2-dimethylquinuclidin-3-yl)-7-(trifluoromethyl)benzo[d]isoxazol-3-amine hydrochloride]: more than 10 µM; `Cc1cc2onc(N[C@@H]3C4CCN(CC4)C3(C)C)c2cc1F` [Compound (R)-9, (R)—N-(2,2-dimethylquinuclidin-3-yl)-5-fluoro-6-methylbenzo[d]isoxazol-3-amine hydrochloride]: more than 10 µM.
Turning to `Fc1cc2c(N[C@@H]3C4CCN(CC4)C34CC4)noc2cc1Cl` [Compound (R)-26, (R)-6-chloro-5-fluoro-N-(1′-azaspiro[cyclopropane-1,2′-bicyclo[2.2.2]octan]-3′-yl)benzo[d]isoxazol-3-amine hydrochloride], the Ki amounted to 2.8 µM.
`CC1(C)C(Nc2noc3cc(Cl)ccc23)C2CCN1CC2` (racemic) [rac-1, 6-chloro-N-(2,2-dimethylquinuclidin-3-yl)benzo[d]isoxazol-3-amine hydrochloride]: the Ki stood at 2.7 µM.
Same read-out and setting: next, `CC1(C)[C@H](Nc2noc3c(F)c(Cl)ccc23)C2CCN1CC2` [Compound (R)-2, (R)-6-chloro-N-(2,2-dimethylquinuclidin-3-yl)-7-fluorobenzo[d]isoxazol-3-amine hydrochloride]: 3.15 µM; `Cc1ccc2c(N[C@@H]3C4CCN(CC4)C34CC4)noc2c1F` [Compound (R)-22, (R)-7-fluoro-6-methyl-N-(1′-azaspiro[cyclopropane-1,2′-bicyclo[2.2.2]octan]-3′-yl)benzo[d]isoxazol-3-amine hydrochloride]: 0.54 µM; `Cc1ccc2c(N[C@@H]3C4CCN(CC4)C3(C)C)noc2c1Cl` [Compound (R)-13, (R)-7-chloro-N-(2,2-dimethylquinuclidin-3-yl)-6-methylbenzo[d]isoxazol-3-amine hydrochloride]: 0.15 µM.
The same measure, in the same setting: next, `CCOc1c(Cl)ccc2c(N[C@@H]3C4CCN(CC4)C3(C)C)noc12` [Compound (R)-12, (R)-6-chloro-N-(2,2-dimethylquinuclidin-3-yl)-7-ethoxybenzo[d]isoxazol-3-amine hydrochloride]: more than 10 µM.
Still for that read-out and setting: in the case of `CCOc1c(Cl)ccc2c(N[C@@H]3C4CCN(CC4)C34CC4)noc12` [Compound (R)-27, (R)-6-chloro-7-ethoxy-N-(1′-azaspiro[cyclopropane-1,2′-bicyclo[2.2.2]octan]-3′-yl)benzo[d]isoxazol-3-amine hydrochloride] it was 5.6 µM; in that of `Cc1c(Cl)ccc2c(N[C@@H]3C4CCN(CC4)C34CC4)noc12` [Compound (R)-25, (R)-6-chloro-7-methyl-N-(1′-azaspiro[cyclopropane-1,2′-bicyclo[2.2.2]octan]-3′-yl)benzo[d]isoxazol-3-amine hydrochloride], 0.17 µM.
Consider `CC1(C)[C@H](Nc2noc3cc(Cl)ccc23)C2CCN1CC2` [Compound (R)-1, (R)-6-chloro-N-(2,2-dimethylquinuclidin-3-yl)benzo[d]isoxazol-3-amine], for which the inhibition constant (Ki) amounted to 2.6 µM.
With `COc1c(Cl)ccc2c(N[C@@H]3C4CCN(CC4)C34CC4)noc12` [Compound (R)-20, (R)-6-chloro-7-methoxy-N-(1′-azaspiro[cyclopropane-1,2′-bicyclo[2.2.2]octan]-3′-yl)benzo[d]isoxazol-3-amine hydrochloride], the Ki is 0.2 µM.
With `Fc1ccc2c(N[C@@H]3C4CCN(CC4)C34CC4)noc2c1Cl` [Compound (R)-23, (R)-7-chloro-6-fluoro-N-(1′-azaspiro[cyclopropane-1,2′-bicyclo[2.2.2]octan]-3′-yl)benzo[d]isoxazol-3-amine hydrochloride], the Ki was determined as 0.11 µM.
With `Cc1ccc2c(N[C@@H]3C4CCN(CC4)C3(C)C)noc2c1F` [Compound (R)-7, (R)—N-(2,2-dimethylquinuclidin-3-yl)-7-fluoro-6-methylbenzo[d]isoxazol-3-amine hydrochloride], the Ki was determined as 2.1 µM.
For `Cc1ccc2c(N[C@@H]3C4CCN(CC4)C3(C)C)noc2c1` [Compound (R)-6, (R)—N-(2,2-dimethylquinuclidin-3-yl)-6-methylbenzo[d]isoxazol-3-amine hydrochloride], the inhibition constant Ki was 3.5 µM.
As for `Fc1c(Cl)ccc2c(N[C@@H]3C4CCN(CC4)C34CC4)noc12` [Compound (R)-17, (R)-6-chloro-7-fluoro-N-(1′-azaspiro[cyclopropane-1,2′-bicyclo[2.2.2]octan]-3′-yl)benzo[d]isoxazol-3-amine hydrochloride], the inhibition constant (Ki) came to 0.92 µM.
Consider `CC1(C)[C@H](Nc2noc3c(Cl)c(F)ccc23)C2CCN1CC2` [Compound (R)-8, (R)-7-chloro-N-(2,2-dimethylquinuclidin-3-yl)-6-fluorobenzo[d]isoxazol-3-amine hydrochloride], for which the Ki came out at 0.17 µM.
Same read-out and setting: in the case of `Cc1ccc2c(N[C@@H]3C4CCN(CC4)C34CC4)noc2c1` [Compound (R)-21, (R)-6-methyl-N-(1′-azaspiro[cyclopropane-1,2′-bicyclo[2.2.2]octan]-3′-yl) benzo[d]isoxazol-3-amine hydrochloride] it was 1.6 µM; in that of `Cc1cc2onc(N[C@@H]3C4CCN(CC4)C34CC4)c2cc1F` [Compound (R)-24, (R)-5-fluoro-6-methyl-N-(1′-azaspiro[cyclopropane-1,2′-bicyclo[2.2.2]octan]-3′-yl) benzo[d]isoxazol-3-amine hydrochloride], 3.1 µM; in that of `COc1c(Cl)ccc2c(N[C@@H]3C4CCN(CC4)C3(C)C)noc12` [Compound (R)-5, (R)-6-chloro-N-(2,2-dimethylquinuclidin-3-yl)-7-methoxybenzo[d]isoxazol-3-amine hydrochloride], 0.45 µM.
On to `FC(F)(F)c1c(Cl)ccc2c(N[C@@H]3C4CCN(CC4)C34CC4)noc12` [Compound (R)-29, (R)-6-chloro-N-(1′-azaspiro[cyclopropane-1,2′-bicyclo[2.2.2]octan]-3′-yl)-7-(trifluoromethyl)benzo[d]isoxazol-3-amine hydrochloride], for which the Ki was determined as 4.3 µM.
On to `Cc1c(Cl)ccc2c(N[C@@H]3C4CCN(CC4)C3(C)C)noc12` [Compound (R)-10, (R)-6-chloro-N-(2,2-dimethylquinuclidin-3-yl)-7-methylbenzo[d]isoxazol-3-amine hydrochloride], for which the Ki worked out at 0.38 µM.
The same measure, in the same setting: in the case of `COc1ccc2c(N[C@@H]3C4CCN(CC4)C34CC4)noc2c1` [Compound (R)-18, (R)-6-methoxy-N-(1′-azaspiro[cyclopropane-1,2′-bicyclo[2.2.2]octan]-3′-yl)benzo[d]isoxazol-3-amine hydrochloride] it was more than 10 µM.

The target in another assay is recombinantly expressed human α7-nAChR (Homo sapiens, UniProt P36544).
recombinantly expressed human α7-nAChR, sequence (P36544 23-502): as the sequence (P36544 23-502) above
Test: not given
As to conditions: [125I] α-BTX radioligand, Feuerbach et al., Br. J. Pharmacol., 2014, read-out: Ki (lit); cited from earlier work.
Take `Cc1ccc(-c2ccc(OC3CN4CCC3CC4)cn2)cc1` (centres unmarked) [AQW051]: the Ki was 0.028 µM.
